Experiments:
BT474 cells = assay: MTT cell viability, BT474 cells; assay type: cell-based, human; conditions: for cell viability, increasing concentrations: 72 h, concentration-related (FIG. 2); for cell viability at low concentrations: <1 μM, alone or 1:1 combination, 72 h (FIG. 3)
Procedure: (§1) The effect of THC and CBD, alone and in combination, on the viability of two different Her2-positive human breast cancer cell lines: SkBr3 and BT474 were tested.
(§2) Briefly, cells were incubated in RPMI (SkBr3) or DMEM (BT474) supplemented with 10% foetal bovine serum. After 12 hours of serum starvation, the cells were challenged with different concentrations of THC or CBD (or the corresponding vehicle, DMSO) for 72 h. Cell viability was then determined by the colorimetric MTT test.
The analysis of the combined drug effect was performed with the CalcuSyn v2.0 software. To determine whether the combination of THC and CBD was additive or synergistic, we calculated different combination indexes (Cis) using the algorithm by Chou and Talalay with the CalcuSyn v2.0 software.
For each ED, the software (i) plots a line connecting the concentrations of THC and CBD that produce that particular effect when administered as single agents, and (ii) generates a point that indicates the concentration of THC and CBD, applied as a combination, required to produce such effect. If the line is straight, this means that the two compounds are producing a simple additive effect and the point should appear within it.
The effect of THC and CBD, alone and in combination at different ratios, on the viability of BT474 cells was examined.
Cells were incubated in DMEM supplemented with 10% foetal bovine serum. After 12 hours of serum starvation, cells were challenged for 72 h as described in Table 3.1. Cell viability was then determined by the colorimetric MTT test.

SkBr3 cells = assay: MTT cell viability, SkBr3 cells; assay type: cell-based, human; conditions: for cell viability, increasing concentrations: 72 h, concentration-related (FIG. 2)
Procedure: as §1, §2

[1] = tested on: 231-Met (highly metastatic 231-Her2-derived cell line); assay: MTT cell viability, highly metastatic 231-Her2 cells; assay type: cell-based, human; conditions: for cell viability, increasing concentrations: 72 h (FIG. 9); for IC50 values, cell viability: 72 h, THC compared with CBD (FIG. 9)
Procedure: The effect of THC and CBD on the viability of a series of Her2-positive human breast cancer cell lines: MDA-MB-231 cells that ectopically overexpress Her2 (231-Her2), a highly metastatic version of 231-Her2 (231-Met), and three different trastuzumab-resistant 231-Her2-derived cell lines (TrR1, TrR2 and TrR3).
Cells were incubated in DMEM supplemented with 10% foetal bovine serum. After 12 hours of serum starvation, cells were challenged with different concentrations of THC or CBD (or the corresponding vehicle, DMSO) for 72 h. Cell viability was then determined by the colorimetric MTT test.
(§3) Cells were incubated in the presence of cannabinoids for 48 h and cell viability was assessed by the MTT colorimetric test.

[2] = tested on: MDA-MB-231 cells stably overexpressing Her2 (231-Her2); assay: MTT cell viability, 231-Her2 cells; assay type: cell-based, human; conditions: 48 h (FIGS. 13 and 14)
Procedure: as §3

MDA-MB-231 cells = assay: MTT cell viability, MDA-MB-231 cells; assay type: cell-based, human; conditions: 48 h (FIG. 11)
Procedure: as §3

id-1 gene expression = conditions: MDA-MB231 and MDA-MB436 cell lines; cited from earlier work

| Molecule | effect of CB2 antagonist on THC-induced decrease of viability (BT474 cells; 6 μM THC with 2 μM SR144528, 72 h (FIG. 1C)) | effect of CB2 antagonist on THC-induced decrease of viability (SkBr3 cells; 3 μM THC with 2 μM SR144528, 72 h (FIG. 1C)) | cell viability, increasing concentrations [1] | IC50 values, cell viability [1] | cell viability, single agents, increasing concentrations [2] | cell viability, single agents (MDA-MB-231 cells) | cell viability upon exposure to THC (BT474 cells; 6 μM THC, 72 h (FIG. 1C)) | cell viability, increasing concentrations (BT474 cells) | cell viability at low concentrations (BT474 cells) | cell viability upon exposure to THC (SkBr3 cells; 3 μM THC, 72 h (FIG. 1C)) | cell viability, increasing concentrations (SkBr3 cells) | id-1 gene expression (id-1 gene expression) |
| --- | --- | --- | --- | --- | --- | --- | --- | --- | --- | --- | --- | --- |
| SR144528 | prevented | prevented |  |  |  |  |  |  |  |  |  |  |
| CCCCCc1cc(O)c2c(c1)OC(C)(C)[C@@H]1CCC(C)=C[C@@H]21 [THC, tetrahydrocannabinol] |  |  | decreased its viability | virtually identical | decreases | sensitive | decreases | reduced their viability | no effect on cell viability | decreases | reduced their viability |  |
| C=C(C)[C@@H]1CCC(C)=C[C@H]1c1c(O)cc(CCCCC)cc1O [CBD, cannabidiol] |  |  | decreased its viability | virtually identical | decreases | sensitive |  | reduced their viability | no effect on cell viability |  | reduced their viability | inhibit |
